Data: patent US10689327B2, “Prodrug amino acid derivative” (TAISHO PHARMACEUTICALS CO., LTD., priority 2016, dated 2020)

Assays:
[1] = biological target: human metabotropic glutamate receptor mGluR2 (Homo sapiens (Human), UniProt Q14416); experiment: [35S]GTPγS binding test, mGluR2; assay type: biochemical; settings: inhibition of glutamate (20 μM)-stimulated [35S]GTPγS specific binding, CHO cell membranes
Description: (§1) Test 1 [^35S]GTPγS binding test
(§2) CHO cells stably expressing human metabotropic glutamate receptors mGluR2 and mGluR3 were cultured at 37° C. under 5% CO2 using a Dulbecco's modified Eagle medium [1% proline, 1 mM sodium pyruvate, 1 mM succinic acid, 1 mM disodium succinate, 100 units/mL penicillin, 100 μg/mL streptomycin, 400 (mGluR2) or 300 (mGluR3) μg/mL hygromycin B, 2 mM L-glutamine (added just before use)] containing 10% dialyzed fetal bovine serum. The cells in a confluent state were washed with PBS(−), then dissociated using a cell scraper, and centrifuged at 1000 rpm for 5 minutes at 4° C. to recover the cells. The obtained pellet was suspended in a 20 mM HEPES buffer (pH 7.4) (mGluR2) or 20 mM HEPES buffer containing 1 mM EDTA (pH 7.4) (mGluR3), and the suspension was homogenized in a Teflon® homogenizer and then centrifuged at 48,000×g for 20 minutes at 4° C. to obtain a pellet again. The obtained pellet was subjected to two additional cycles of washing and centrifugation and then homogenized with the buffer described above to obtain a crude membrane fraction. The crude membrane fraction was diluted with a buffer for a binding test (final concentration: 20 mM HEPES, 100 mM NaCl, 10 mM MgCl2, 10 μM GDP, […], 0.1% BSA) (mGluR2) or (final concentration: 20 mM HEPES, 1 mM EDTA, 100 mM NaCl, 10 mM MgCl2, 10 μM GDP, 10 μg/mL saponin, 0.1% BSA) (mGluR3). To the crude membrane fraction containing 10 μg of membrane proteins/assay, Compounds (II)-1 to (II)-15 were each added, and the mixture was incubated at 30° C. for 20 minutes. Then, glutamate (final concentration: 20 (mGluR2) or 1 (mGluR3) μM) and [^35S]GTPγS (final concentration: 0.15 nM) were added thereto, and the mixture was incubated at 30° C. for 1 hour. The solution thus incubated was filtered by suction onto Whatman GF/C filter, and the filter was washed with 1000 μL of an ice-cooled 20 mM HEPES buffer (pH 7.4) (mGluR2) or 20 mM HEPES buffer containing 1 mM EDTA (pH 7.4) (mGluR3). A scintillation cocktail was added to the obtained filter, and the membrane binding radioactivity was measured using a liquid scintillation counter. The residual radioactivity in the absence of glutamate was defined as nonspecific binding, and the difference from the residual radioactivity in the presence of glutamate was defined as specific binding. From the percent inhibition of specific binding at varying concentrations of Compounds (II)-1 to (II)-15, an inhibition curve was obtained using nonlinear analysis. The concentrations at which Compounds (II)-1 to (II)-15 inhibited 50% of specific binding (IC50) were calculated from the inhibition curve.

[2] = biological target: human metabotropic glutamate receptor mGluR3 (Homo sapiens (Human), UniProt Q14832); experiment: [35S]GTPγS binding test, mGluR3; assay type: biochemical; settings: inhibition of glutamate (1 μM)-stimulated [35S]GTPγS specific binding, CHO cell membranes
Description: as §1, §2

[3] = biological target: mGlu2 receptor (Homo sapiens (Human), UniProt Q14416); settings: reported in literature; cited from earlier work
[4] = Stability test in solution (pH 1.2 and pH 6.5); assay type: physicochemical; settings: 1 hour; for Compound's percent residue (%) pH 1.2: hydrochloric acid solution pH 1.2, 37° C.
Description: Test 2: Stability Test in Solution
A test to determine the stability of Inventive Compounds (I-A) or (I) in a hydrochloric acid solution (pH 1.2) and 20 mM phosphate buffer (pH 6.5) was conducted in accordance with the following method.
A compound was dissolved in a hydrochloric acid solution (pH 1.2) containing hydrochloric acid and sodium chloride or a 20 mM phosphate buffer (pH 6.5) containing disodium hydrogenphosphate, sodium dihydrogenphosphate and sodium chloride to prepare a solution with a concentration of about 50 ng/mL (near the saturated concentration when the compound was not dissolved). The solution was incubated at 37° C. for 1 hour and the compound's concentration before and after the incubation was quantified by high-performance liquid chromatography to calculate the percent residue of the compound. Compounds having low solubility were assessed as being not applicable.
The percent residues of representative compounds in the hydrochloric acid solution (pH 1.2) and the 20 mM phosphate buffer (pH 6.5) are shown in the following Table 2.

[5] = biological target: mGlu3 receptor (Homo sapiens (Human), UniProt Q14832); settings: reported in literature; cited from earlier work
[6] = system: rats; settings: 1 mg/kg; cited from earlier work
[7] = system: mice; settings: cited from earlier work

Chain of human metabotropic glutamate receptor mGluR3 (Q14832 23-879): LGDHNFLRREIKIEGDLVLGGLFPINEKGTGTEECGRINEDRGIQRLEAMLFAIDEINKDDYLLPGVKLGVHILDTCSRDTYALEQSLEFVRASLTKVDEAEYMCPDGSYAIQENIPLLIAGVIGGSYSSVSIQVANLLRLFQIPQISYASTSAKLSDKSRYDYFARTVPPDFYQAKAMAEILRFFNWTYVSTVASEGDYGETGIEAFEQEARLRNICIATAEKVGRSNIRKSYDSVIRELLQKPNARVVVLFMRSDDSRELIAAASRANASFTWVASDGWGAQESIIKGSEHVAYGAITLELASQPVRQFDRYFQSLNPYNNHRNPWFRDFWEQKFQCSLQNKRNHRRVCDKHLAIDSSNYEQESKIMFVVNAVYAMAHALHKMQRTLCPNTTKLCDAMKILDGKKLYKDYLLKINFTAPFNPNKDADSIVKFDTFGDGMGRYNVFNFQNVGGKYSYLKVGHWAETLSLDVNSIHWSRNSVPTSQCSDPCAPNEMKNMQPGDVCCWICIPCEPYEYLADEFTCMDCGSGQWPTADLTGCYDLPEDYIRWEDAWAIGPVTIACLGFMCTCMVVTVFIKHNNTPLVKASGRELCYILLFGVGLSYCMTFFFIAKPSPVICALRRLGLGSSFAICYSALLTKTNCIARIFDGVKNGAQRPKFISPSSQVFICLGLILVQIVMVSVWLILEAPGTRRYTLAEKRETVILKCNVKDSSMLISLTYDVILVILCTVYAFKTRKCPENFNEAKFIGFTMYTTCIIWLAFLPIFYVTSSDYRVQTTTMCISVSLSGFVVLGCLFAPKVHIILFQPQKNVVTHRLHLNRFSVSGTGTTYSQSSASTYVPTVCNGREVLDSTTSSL
Chain of mGlu2 receptor (Q14416 19-872): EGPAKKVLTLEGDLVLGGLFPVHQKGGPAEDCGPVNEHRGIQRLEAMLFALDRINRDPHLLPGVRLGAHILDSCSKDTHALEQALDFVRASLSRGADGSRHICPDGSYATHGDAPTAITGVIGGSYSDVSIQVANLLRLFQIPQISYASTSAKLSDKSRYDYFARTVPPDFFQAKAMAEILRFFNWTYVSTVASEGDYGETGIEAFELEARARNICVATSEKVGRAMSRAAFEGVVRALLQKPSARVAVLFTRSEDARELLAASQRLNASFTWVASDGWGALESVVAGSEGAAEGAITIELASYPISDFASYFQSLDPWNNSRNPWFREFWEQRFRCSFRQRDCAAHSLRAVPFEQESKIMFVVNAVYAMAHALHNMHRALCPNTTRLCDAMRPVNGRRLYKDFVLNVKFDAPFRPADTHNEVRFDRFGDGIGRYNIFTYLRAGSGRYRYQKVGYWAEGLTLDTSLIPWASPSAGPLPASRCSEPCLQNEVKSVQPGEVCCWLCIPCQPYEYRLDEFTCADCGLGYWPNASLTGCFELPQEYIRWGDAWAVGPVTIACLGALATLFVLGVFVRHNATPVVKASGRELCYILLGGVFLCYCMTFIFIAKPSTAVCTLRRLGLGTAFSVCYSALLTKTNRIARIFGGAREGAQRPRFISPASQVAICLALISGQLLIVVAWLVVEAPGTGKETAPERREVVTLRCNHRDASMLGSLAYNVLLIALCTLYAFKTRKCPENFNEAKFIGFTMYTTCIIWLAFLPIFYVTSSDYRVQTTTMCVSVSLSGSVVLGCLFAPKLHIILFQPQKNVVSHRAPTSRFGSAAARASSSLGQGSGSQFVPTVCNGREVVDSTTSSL
Chain of human metabotropic glutamate receptor mGluR2 (Q14416 19-872): as above
Chain of mGlu3 receptor (Q14832 23-879): as the sequence (Q14832 23-879) above

Structure (SMILES)	IC50 [1] [µM]	IC50 [2] [µM]	further results
N[C@]1(C(=O)O)[C@H]2[C@@H](C[C@H]1OCc1ccc(F)cc1)[C@]2(F)C(=O)O [Compound (II)-1, (1R,2R,3R,5R,6R)-2-amino-6-fluoro-3-[(4-fluorophenyl)methoxy]bicyclo[3.1.0]hexane-2,6-dicarboxylic acid]	0.0361	0.0364	antagonistic activity (mGlu2 receptor) [3]: ≤ 500 nM
N[C@]1(C(=O)O)[C@H]2[C@@H](C[C@H]1OCc1ccc(F)c(F)c1)[C@]2(F)C(=O)O [Compound (II)-2, (1R,2R,3R,5R,6R)-2-amino-3-[(3,4-difluorophenyl)methoxy]-6-fluorobicyclo[3.1.0]hexane-2,6-dicarboxylic acid]	0.0188	0.0148	antagonistic activity (mGlu2 receptor) [3]: ≤ 500 nM
CCCO[C@@H]1C[C@@H]2[C@H]([C@]1(N)C(=O)O)[C@@]2(F)C(=O)O [Compound (II)-3, (1R,2R,3R,5R,6R)-2-amino-6-fluoro-3-propoxybicyclo[3.1.0]hexane-2,6-dicarboxylic acid]	0.0751	0.321	antagonistic activity (mGlu2 receptor) [3]: ≤ 500 nM
COc1cc([C@@H](C)O[C@@H]2C[C@@H]3[C@H]([C@]2(N)C(=O)O)[C@@]3(F)C(=O)O)ccc1F [Compound (II)-4, (1R,2R,3R,5R,6R)-2-amino-6-fluoro-3-[(1R)-1-(4-fluoro-3-methoxyphenyl)ethoxy]bicyclo[3.1.0]hexane-2,6-dicarboxylic acid]	0.00522	0.00504	
N[C@]1(C(=O)O)[C@H]2[C@@H](C[C@H]1OCc1ccc(C(F)(F)F)cc1)[C@]2(F)C(=O)O [Compound (II)-5, (1R,2R,3R,5R,6R)-2-amino-6-fluoro-3-{[4-(triflouromethyl)phenyl]methoxy}bicyclo[3.1.0]hexane-2,6-dicarboxylic acid]	0.0237	0.279	
CC(C)CCO[C@@H]1C[C@@H]2[C@H]([C@]1(N)C(=O)O)[C@@]2(F)C(=O)O [Compound (II)-7, (1R,2R,3R,5R,6R)-2-amino-6-fluoro-3-(3-methylbutoxy)bicyclo[3.1.0]hexane-2,6-dicarboxylic acid]	0.0988	0.173	
N[C@]1(C(=O)O)[C@H]2[C@@H](C[C@H]1OCc1cccc(Cl)n1)[C@]2(F)C(=O)O [Compound (II)-8, (1R,2R,3R,5R,6R)-2-amino-3-[(6-chloropyridin-2-yl)methoxy]-6-fluorobicyclo[3.0.1]hexane-2,6-dicarboxylic acid]	0.0186	0.0323	
N[C@]1(C(=O)O)[C@H]2[C@@H](C[C@H]1OCc1ccc(F)cc1)[C@@H]2C(=O)O [Compound (II)-15, (1S,2R,3R,5R,6S)-2-amino-3-[(4-fluorophenyl)methoxy]bicyclo[3.1.0]hexane-2,6-dicarboxylic acid]	0.0327	0.0605	
C[C@@H](OC(=O)C12CC3CC(CC(C3)C1)C2)OC(=O)[C@@]1(N)[C@H]2[C@@H](C[C@H]1OCc1ccc(F)cc1)[C@@H]2C(=O)O [Example 38, (1S,2R,3R,5R,6S)-2-amino-3-[(4-fluorophenyl)methoxy]-2-({(1S)-1-[(tricyclo[3.3.1.1^3,7]decane-1-carbonyl)oxy]ethoxy}carbonyl)bicyclo[3.1.0]hexane-6-carboxylic acid]			Compound's percent residue (%) pH 6.5 ([4]; 20 mM phosphate buffer pH 6.5, 37° C.): 94%; Compound's percent residue (%) pH 1.2 [4]: 97%
CC(C)[C@@H]1CC[C@@H](C)C[C@H]1OC(=O)O[C@H](C)OC(=O)[C@@]1(N)[C@H]2[C@@H](C[C@H]1OCc1ccc(F)cc1)[C@@H]2C(=O)O [Example 39, (1S,2R,3R,5R,6S)-2-amino-3-[(4-fluorophenyl)methoxy]-2-({(1R)-1-[({[(1R,2S,5R)-5-methyl-2-(propan-2-yl)cyclohexyl]oxy}carbonyl)oxy]ethoxy}carbonyl)bicyclo[3.1.0]hexane-6-carboxylic acid]			Compound's percent residue (%) pH 1.2 [4]: 97%
N[C@]1(C(=O)O)[C@H]2[C@@H](C[C@H]1OCc1ccc(Cl)c(Cl)c1)[C@]2(F)C(=O)O [MGS0039]			antagonistic activity (mGlu2 receptor) [3]: 20 nM; antagonistic activity (mGlu3 receptor) [5]: 24 nM; immobility time in the forced swimming test [6]: sufficient to suppress immobility time; immobility time in the tail suspension test [7]: shortens immobility time

The next lines start with results.

IC50 [1] [µM]	IC50 [2] [µM]	Structure (SMILES)	further results
0.0278	0.0755	N[C@]1(C(=O)O)[C@H]2[C@@H](C[C@H]1OCc1cccc(F)c1)[C@]2(F)C(=O)O [Compound (II)-6, (1R,2R,3R,5R,6R)-2-amino-6-fluoro-3-[(3-fluorophenyl)methoxy]bicyclo[3.1.0]hexane-2.6-dicarboxylic acid]	
0.0622	0.0976	N[C@]1(C(=O)O)[C@H]2[C@@H](C[C@H]1OC1CCCC1)[C@]2(F)C(=O)O [Compound (II)-9, (1R,2R,3R,5R,6R)-2-amino-3-(cyclopentyloxy)-6-fluorobicyclo[3.1.0]hexane-2,6-dicarboxylic acid]	
0.0497	0.0506	N[C@]1(C(=O)O)[C@H]2[C@@H](C[C@H]1OCc1ccc(Cl)nc1)[C@]2(F)C(=O)O [Compound (II)-10, (1R,2R,3R,5R,6R)-2-amino-3-[(6-chloropyridin-3-yl)methoxy]-6-fluorobicyclo[3.1.0]hexane-2,6-dicarboxylic acid]	
0.0284	0.0124	N[C@]1(C(=O)O)[C@H]2[C@@H](C[C@H]1OCc1ccc(Cl)cn1)[C@]2(F)C(=O)O [Compound (II)-11, (1R,2R,3R,5R,6R)-2-amino-3-[(5-chloropyridin-2-yl)methoxy]-6-fluorobicyclo[3.1.0]hexane-2,6-dicarboxylic acid]	
0.0246	0.0544	Cc1ccc(CO[C@@H]2C[C@@H]3[C@H]([C@]2(N)C(=O)O)[C@@]3(F)C(=O)O)cc1 [Compound (II)-12, (1R,2R,3R,5R,6R)-2-amino-6-fluoro-3-[(4-methylphenyl)methoxy]bicyclo[3.1.0]hexane-2.6-dicarboxylic acid]	
0.0373	0.00435	N[C@]1(C(=O)O)[C@H]2[C@@H](C[C@H]1OCc1cc[nH]c(=O)c1)[C@]2(F)C(=O)O [Compound (II)-13, (1R,2R,3R,5R,6R)-2-amino-6-fluoro-3-[(2-oxo-1,2-dihycropyridin-4-yl)methoxy]bicyclo[3.1.0]hexane-2.6-dicarboxylic acid]	
0.0301	0.0152	N[C@]1(C(=O)O)[C@H]2[C@@H](C[C@H]1OCc1ccc(F)c(F)c1)[C@@H]2C(=O)O [Compound (II)-14, (1S,2R,3R,5R,6S)-2-amino-3-[(3,4-difluorophenyl)methoxy]bicyclo[3.1.0]hexane-2,6-dicarboxylic acid]	
